Test results as given in article PMC4775085 (ACS chemical neuroscience, 2015).
Values after ≈ are worked out from the molar mass of the structure shown. Values joined by “and” are separate entries in the source; they are usually repeats but may differ in a detail not shown here. Equal entries are not always repeated. Where two headings read alike, the source gives them in different places.

Experiments:
Aqueous solubility = conditions: PBS; for solubility: pH 7.4, aqueous buffer
HDAC6 = molecular target: T1, HDAC6 (Homo sapiens, UniProt Q9UBN7); assay: HDAC6 enzymatic inhibition assay; assay type: biochemical; conditions: for Selectivity HDAC1/HDAC6: ratio of HDAC1 and HDAC6 IC50 of Table 1 (fold); for IC50: 10-point enzymatic assay starting from 30 μM, 3-fold serial dilution
T1 sequence (Q9UBN7 1-1215): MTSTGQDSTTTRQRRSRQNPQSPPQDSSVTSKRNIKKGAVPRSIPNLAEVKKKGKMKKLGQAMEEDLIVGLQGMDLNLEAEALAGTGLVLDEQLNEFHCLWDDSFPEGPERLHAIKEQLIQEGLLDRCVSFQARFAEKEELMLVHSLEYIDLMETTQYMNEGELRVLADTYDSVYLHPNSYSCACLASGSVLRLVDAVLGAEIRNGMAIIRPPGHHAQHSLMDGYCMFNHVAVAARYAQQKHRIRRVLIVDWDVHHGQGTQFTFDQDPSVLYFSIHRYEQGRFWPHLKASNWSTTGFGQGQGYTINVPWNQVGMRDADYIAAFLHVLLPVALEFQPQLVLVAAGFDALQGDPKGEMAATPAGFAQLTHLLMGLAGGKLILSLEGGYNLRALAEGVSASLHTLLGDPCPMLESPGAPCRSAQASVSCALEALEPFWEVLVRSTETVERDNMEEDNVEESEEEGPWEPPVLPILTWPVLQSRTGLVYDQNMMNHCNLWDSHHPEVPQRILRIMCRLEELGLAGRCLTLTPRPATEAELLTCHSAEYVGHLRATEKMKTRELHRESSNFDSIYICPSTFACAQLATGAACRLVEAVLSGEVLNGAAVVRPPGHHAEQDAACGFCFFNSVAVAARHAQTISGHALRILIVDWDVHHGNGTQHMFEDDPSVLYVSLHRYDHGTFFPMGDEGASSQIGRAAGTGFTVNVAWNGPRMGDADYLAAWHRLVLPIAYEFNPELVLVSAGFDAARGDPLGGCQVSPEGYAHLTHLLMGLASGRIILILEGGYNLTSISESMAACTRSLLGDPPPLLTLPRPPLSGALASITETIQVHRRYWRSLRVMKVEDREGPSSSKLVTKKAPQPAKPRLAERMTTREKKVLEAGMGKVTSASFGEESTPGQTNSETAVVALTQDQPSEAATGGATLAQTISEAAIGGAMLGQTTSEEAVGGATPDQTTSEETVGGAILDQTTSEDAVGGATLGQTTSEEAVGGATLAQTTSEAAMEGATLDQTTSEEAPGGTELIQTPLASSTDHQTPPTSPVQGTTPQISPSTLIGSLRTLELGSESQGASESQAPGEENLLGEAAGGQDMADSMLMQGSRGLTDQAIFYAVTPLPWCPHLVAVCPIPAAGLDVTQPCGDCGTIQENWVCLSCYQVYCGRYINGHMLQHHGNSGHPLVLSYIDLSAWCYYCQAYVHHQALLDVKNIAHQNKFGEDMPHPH

mutant HSPB1 DRG neurons = assay: Mitochondrial axonal transport in mutant HSPB1 DRG neurons; assay type: cell-based, mouse; conditions: DRG neurons from transgenic mutant HSPB1 mice, 100 nM overnight
CYP 3A4-T = CYP 3A4-T (Homo sapiens, UniProt P08684); assay: CYP inhibition 3A4-T; assay type: in vitro ADME
Plasma stability, human = assay type: in vitro ADME; conditions: 120 min
[1] = Intravenous and oral plasma pharmacokinetics in male CD1 mice; assay type: in vivo; conditions: CD1, mouse
[2] = Liver microsomes stability, mouse; assay type: in vitro ADME
[3] = Hepatocyte stability, mouse; assay type: in vitro ADME; conditions: hepatocytes
CYP 2C9 = CYP 2C9 (Homo sapiens, UniProt P11712); assay: CYP inhibition 2C9
CYP 1A2 = molecular target: T2, CYP 1A2 (Homo sapiens, UniProt P05177); assay: CYP inhibition 1A2
T2 sequence (P05177 1-516): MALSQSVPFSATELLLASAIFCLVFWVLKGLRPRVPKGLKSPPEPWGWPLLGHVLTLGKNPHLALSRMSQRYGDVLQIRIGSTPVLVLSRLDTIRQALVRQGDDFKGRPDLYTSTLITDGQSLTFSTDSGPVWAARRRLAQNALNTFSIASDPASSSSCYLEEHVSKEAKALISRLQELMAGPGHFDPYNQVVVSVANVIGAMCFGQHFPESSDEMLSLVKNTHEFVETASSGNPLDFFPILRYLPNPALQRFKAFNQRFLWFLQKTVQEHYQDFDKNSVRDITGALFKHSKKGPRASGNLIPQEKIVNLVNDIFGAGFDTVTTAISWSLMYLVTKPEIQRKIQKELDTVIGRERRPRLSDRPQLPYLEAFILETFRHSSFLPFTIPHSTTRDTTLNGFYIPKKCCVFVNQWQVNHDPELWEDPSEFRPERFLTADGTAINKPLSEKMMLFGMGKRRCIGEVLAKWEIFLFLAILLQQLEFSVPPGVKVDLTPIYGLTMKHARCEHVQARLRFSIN

CYP 2D6 = CYP 2D6 (Homo sapiens, UniProt P10635); assay: CYP inhibition 2D6; assay type: in vitro ADME
[4] = Hepatocyte stability, human; assay type: in vitro ADME; conditions: hepatocytes
HDAC8 = molecular target: T3, HDAC8 (Homo sapiens, UniProt Q9BY41); assay: HDAC8 enzymatic inhibition assay
T3 sequence (Q9BY41 1-377): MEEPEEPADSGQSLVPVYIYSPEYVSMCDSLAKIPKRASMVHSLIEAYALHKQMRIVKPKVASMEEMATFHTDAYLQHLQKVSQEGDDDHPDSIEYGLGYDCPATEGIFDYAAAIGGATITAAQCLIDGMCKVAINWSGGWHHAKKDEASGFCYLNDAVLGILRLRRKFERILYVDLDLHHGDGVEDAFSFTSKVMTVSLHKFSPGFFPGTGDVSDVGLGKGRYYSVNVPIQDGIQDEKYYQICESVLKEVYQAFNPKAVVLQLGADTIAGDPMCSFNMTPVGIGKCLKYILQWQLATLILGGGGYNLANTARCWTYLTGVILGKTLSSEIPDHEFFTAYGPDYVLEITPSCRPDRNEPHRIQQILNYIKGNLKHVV

HDAC4 = HDAC4 (Homo sapiens, UniProt P56524); assay: HDAC4 enzymatic inhibition assay
[5] = Liver microsomes stability, human; assay type: in vitro ADME
CYP 3A4-M = CYP 3A4-M (Homo sapiens, UniProt P08684); assay: CYP inhibition 3A4-M; assay type: in vitro ADME
HDAC5 = HDAC5 (Homo sapiens, UniProt Q9UQL6); assay: HDAC5 enzymatic inhibition assay
Plasma stability, mouse = assay type: in vitro ADME; conditions: 120 min
CYP 2C19 = CYP 2C19 (Homo sapiens, UniProt P33261); assay: CYP inhibition 2C19
Caco-2 permeability = assay type: in vitro ADME; conditions: human, Caco-2, pH 7.4
[6] = IC50 (nM) HDAC6, mean of two experiments ± standard deviation

CYP 2C19, sequence (P33261 whole entry): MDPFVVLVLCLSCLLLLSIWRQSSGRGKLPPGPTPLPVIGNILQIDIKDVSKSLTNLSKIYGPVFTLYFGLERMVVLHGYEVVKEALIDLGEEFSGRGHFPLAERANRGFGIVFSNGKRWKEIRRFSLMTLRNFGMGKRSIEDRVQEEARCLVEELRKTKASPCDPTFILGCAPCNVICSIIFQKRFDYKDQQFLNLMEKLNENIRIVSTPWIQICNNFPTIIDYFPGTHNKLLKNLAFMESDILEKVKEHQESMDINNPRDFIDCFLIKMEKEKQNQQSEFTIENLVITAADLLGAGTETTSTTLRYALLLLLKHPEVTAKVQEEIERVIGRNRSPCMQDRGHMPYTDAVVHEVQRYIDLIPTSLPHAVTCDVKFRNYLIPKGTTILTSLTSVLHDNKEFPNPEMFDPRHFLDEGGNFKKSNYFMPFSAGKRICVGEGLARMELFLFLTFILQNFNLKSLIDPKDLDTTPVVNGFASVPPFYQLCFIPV
CYP 2C9, sequence (P11712 whole entry): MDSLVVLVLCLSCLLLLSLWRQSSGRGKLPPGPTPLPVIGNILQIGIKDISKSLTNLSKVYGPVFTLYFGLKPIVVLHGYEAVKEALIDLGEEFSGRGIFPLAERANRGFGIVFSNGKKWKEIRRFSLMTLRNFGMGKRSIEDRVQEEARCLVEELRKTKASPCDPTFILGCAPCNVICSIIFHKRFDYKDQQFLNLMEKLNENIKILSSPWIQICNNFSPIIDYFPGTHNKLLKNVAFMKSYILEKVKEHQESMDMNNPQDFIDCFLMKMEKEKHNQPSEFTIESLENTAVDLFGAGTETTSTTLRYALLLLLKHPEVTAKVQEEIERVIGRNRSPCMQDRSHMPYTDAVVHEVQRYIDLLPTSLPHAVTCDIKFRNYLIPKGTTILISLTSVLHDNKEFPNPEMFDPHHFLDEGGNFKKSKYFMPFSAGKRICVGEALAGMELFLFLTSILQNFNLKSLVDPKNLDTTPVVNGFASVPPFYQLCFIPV
CYP 2D6, sequence (P10635 whole entry): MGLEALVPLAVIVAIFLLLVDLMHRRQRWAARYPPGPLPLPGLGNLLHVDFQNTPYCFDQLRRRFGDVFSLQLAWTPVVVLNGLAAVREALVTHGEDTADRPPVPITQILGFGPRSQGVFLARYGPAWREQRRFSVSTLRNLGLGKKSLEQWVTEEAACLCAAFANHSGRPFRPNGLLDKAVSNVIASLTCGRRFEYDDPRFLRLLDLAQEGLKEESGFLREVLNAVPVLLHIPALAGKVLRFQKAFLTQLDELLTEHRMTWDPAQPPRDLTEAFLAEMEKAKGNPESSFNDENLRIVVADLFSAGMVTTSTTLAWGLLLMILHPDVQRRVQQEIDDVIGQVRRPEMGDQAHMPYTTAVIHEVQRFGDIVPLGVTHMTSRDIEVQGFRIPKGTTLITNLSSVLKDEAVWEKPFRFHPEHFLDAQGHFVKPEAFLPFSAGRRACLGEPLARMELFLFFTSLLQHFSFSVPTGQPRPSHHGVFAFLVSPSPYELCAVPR
HDAC4, sequence (P56524 whole entry): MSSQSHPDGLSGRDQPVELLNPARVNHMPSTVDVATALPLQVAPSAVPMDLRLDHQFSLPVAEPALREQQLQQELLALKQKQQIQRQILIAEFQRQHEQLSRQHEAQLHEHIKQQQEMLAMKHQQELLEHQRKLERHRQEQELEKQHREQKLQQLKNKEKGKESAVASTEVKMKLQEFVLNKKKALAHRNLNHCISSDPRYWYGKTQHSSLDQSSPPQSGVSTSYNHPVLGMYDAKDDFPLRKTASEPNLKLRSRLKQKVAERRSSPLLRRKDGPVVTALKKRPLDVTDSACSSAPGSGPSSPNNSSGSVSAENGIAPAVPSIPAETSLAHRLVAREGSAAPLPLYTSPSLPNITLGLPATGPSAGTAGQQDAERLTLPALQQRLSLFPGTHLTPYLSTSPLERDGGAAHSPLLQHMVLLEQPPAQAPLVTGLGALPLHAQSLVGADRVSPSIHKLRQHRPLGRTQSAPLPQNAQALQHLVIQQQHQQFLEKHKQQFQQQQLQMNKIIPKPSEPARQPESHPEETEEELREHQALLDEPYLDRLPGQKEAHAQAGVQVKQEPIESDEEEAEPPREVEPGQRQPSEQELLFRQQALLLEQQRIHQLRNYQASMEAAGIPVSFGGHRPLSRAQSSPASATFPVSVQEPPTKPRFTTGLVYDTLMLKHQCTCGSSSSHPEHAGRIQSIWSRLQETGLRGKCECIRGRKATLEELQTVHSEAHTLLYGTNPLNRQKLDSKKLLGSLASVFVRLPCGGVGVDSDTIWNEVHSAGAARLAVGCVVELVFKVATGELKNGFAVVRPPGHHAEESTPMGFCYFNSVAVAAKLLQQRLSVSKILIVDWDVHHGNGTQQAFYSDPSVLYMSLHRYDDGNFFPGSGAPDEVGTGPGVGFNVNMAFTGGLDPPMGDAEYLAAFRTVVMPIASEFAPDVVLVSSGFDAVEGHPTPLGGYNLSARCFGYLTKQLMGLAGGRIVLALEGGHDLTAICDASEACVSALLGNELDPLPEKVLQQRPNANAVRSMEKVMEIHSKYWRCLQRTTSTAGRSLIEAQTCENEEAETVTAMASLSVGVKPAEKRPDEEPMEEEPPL
HDAC5, sequence (Q9UQL6 whole entry): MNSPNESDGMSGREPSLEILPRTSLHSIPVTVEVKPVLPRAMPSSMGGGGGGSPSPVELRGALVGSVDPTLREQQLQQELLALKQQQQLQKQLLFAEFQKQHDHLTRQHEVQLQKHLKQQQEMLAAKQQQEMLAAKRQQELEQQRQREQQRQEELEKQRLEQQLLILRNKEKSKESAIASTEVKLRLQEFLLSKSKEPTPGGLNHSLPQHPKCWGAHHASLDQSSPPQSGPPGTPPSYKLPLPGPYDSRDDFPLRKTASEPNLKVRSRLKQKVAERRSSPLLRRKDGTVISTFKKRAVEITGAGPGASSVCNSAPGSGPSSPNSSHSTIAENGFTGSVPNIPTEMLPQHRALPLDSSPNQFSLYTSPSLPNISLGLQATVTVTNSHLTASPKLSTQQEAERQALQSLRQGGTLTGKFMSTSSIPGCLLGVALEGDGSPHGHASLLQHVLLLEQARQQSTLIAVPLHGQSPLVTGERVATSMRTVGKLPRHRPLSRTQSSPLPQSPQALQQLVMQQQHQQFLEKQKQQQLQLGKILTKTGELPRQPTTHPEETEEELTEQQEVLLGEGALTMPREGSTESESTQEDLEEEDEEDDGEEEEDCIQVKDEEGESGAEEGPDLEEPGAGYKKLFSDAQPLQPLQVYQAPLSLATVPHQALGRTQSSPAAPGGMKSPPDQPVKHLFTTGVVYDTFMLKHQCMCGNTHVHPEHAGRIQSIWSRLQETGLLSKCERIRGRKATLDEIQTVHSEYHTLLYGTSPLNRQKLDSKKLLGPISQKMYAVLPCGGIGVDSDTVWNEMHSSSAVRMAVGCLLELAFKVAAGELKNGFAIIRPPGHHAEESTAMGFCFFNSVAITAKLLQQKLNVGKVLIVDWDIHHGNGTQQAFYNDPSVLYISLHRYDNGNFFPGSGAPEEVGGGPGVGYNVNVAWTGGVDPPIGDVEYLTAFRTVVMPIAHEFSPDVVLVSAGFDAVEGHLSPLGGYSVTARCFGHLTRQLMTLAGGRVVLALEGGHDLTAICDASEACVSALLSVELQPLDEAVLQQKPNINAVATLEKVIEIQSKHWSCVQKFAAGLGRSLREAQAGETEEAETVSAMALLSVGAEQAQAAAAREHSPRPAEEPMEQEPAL
CYP 3A4-T, sequence (P08684 whole entry): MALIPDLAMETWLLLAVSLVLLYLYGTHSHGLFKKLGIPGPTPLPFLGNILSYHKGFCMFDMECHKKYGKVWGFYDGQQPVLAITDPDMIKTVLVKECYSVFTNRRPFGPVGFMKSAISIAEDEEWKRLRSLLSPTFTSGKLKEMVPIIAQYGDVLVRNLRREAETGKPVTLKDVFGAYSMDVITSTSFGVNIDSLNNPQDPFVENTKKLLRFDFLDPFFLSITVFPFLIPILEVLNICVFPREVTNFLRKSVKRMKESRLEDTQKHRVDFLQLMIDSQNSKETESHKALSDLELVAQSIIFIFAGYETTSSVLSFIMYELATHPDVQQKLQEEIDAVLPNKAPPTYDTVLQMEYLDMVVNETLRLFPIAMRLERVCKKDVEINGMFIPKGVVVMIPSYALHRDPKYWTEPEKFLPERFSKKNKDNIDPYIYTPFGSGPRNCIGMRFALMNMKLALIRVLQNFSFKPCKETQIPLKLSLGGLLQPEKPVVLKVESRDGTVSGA
CYP 3A4-M, sequence (P08684 whole entry): as above

Cc1nc2ccccc2n1Cc1ccc(C(=O)NO)cc1 [12a]
aqueous solubility (Aqueous solubility; pH 7.4): 70 µM (≈ 19.7 µg/mL)
fold increase in HDAC6 inhibitory potency (HDAC6; compared to 8 (hydrogen to methyl)): 3 fold
Selectivity HDAC1/HDAC6 (HDAC6): 955
IC50 (HDAC6; read-out: IC50 (nM) HDAC6, mean of two experiments ± standard deviation): 9 nM and 9.2 nM
mitochondrial axonal transport (number of moving mitochondria per 100 μm of neurite) (mutant HSPB1 DRG neurons): able to restore the movement of mitochondria

CC(C)c1nc2ccccc2n1Cc1ccc(C(=O)NO)cc1 [12b, N-Hydroxy-4-[(2-isopropyl-1-benzimidazolyl)methyl]benzamide]
Selectivity HDAC1/HDAC6 (HDAC6): 589

CC(=O)NCCCc1nc2ccccc2n1Cc1ccc(C(=O)NO)cc1 [12d, 4-[[2-(3-Acetamidopropyl)-1-benzimidazolyl]methyl]-N-hydroxybenzamide]
Selectivity HDAC1/HDAC6 (HDAC6): 312

CN(C)CCc1nc2ccccc2n1Cc1ccc(C(=O)NO)cc1 [12e, 4-[[2-[2-(Dimethylamino)ethyl]-1-benzimidazolyl]methyl]-N-hydroxybenzamide]
Selectivity HDAC1/HDAC6 (HDAC6): 416

O=C(NO)c1ccc(CN2CCNc3ccccc32)cc1 [17a, 4-[[1,2,3,4-Tetrahydroquinoxalin-1-yl]methyl]-N-hydroxybenzamide]
IC50 (HDAC6; [6]): 3 nM

O=C(NO)c1ccc(CN2CCN(CC3CC3)c3ccccc32)cc1 [17b, 4-[[4-(Cyclopropylmethyl)-1,2,3,4-tetrahydroquinoxalin-1-yl]-methyl]-N-hydroxybenzamide]
IC50 (HDAC6; [6]): 39.3 ± 0.3 nM

O=C(NO)c1ccc(CN2CCSc3ccccc32)cc1 [17c, 4-[[2,3-Dihydro-4H-benzo[b][1,4]thiazin-4-yl]methyl]-N-hydroxybenzamide]
IC50 (HDAC6; [6]): 6 nM

CC(C)(C)OC(=O)N1CC(=O)N(Cc2ccc(C(=O)NO)cc2)c2ccccc21 [17e, tert-Butyl 4-[4-(Hydroxycarbamoyl)benzyl]-3-oxo-3,4-dihydroquinoxaline-1(2H)-carboxylate]
IC50 (HDAC6; [6]): 34 nM

O=C(NO)c1ccc(Cn2c(=O)cnc3ccccc32)cc1 [17f, N-Hydroxy-4-[(2-oxoquinoxalin-1(2H)-yl)methyl]benzamide]
IC50 (HDAC6; [6]): 1 nM

Cc1nc2ccccc2n1Cc1nc(C(=O)NO)co1 [23a, N-Hydroxy-2-[(2-methyl-1-benzimidazolyl)methyl]oxazole-4-carboxamide]
fold reduction of HDAC6 activity compared to 12a (HDAC6): > 400 fold

Cc1nc2ccccc2n1Cc1nc(C(=O)NO)cs1 [23b, N-Hydroxy-2-[(2-methyl-1-benzimidazolyl)methyl]thiazole-4-carboxamide]
IC50 (HDAC6; [6]): 8310 ± 905 nM
fold reduction of HDAC6 activity compared to 12a (HDAC6): > 900 fold

Cc1nc2ccccc2n1Cc1ccc(C(=O)NO)cn1 [23c, N-Hydroxy-6-[(2-methyl-1-benzimidazolyl)methyl]nicotinamide]
IC50 (HDAC6; [6]): 77 nM

Cc1nc2ccccc2n1Cc1ccc(C(=O)NO)cc1F [23d, 3-Fluoro-N-hydroxy-4-[(2-methyl-1-benzimidazolyl)methyl]-benzamide]
IC50 (CYP 3A4-T): 36000 nM
plasma stability remaining percentage (Plasma stability, human): 93.4%
AUC(0-inf) ([1]; iv, 3 mg/kg): 1480 ng·h/mL
Vd ([1]; iv, 3 mg/kg): 0.382 L/kg
clearance ([1]; iv, 3 mg/kg): 34 mL/min/kg
half-life ([1]; iv, 3 mg/kg): 0.851 h
AUC(0-inf) ([1]; po, 30 mg/kg): 3100 ± 84 ng·h/mL
Cmax ([1]; po, 30 mg/kg): 4370 ± 470 ng/mL
Tmax ([1]; po, 30 mg/kg): 0.25 h
half-life [2]: 4.75 h
half-life [3]: 0.667 h
IC50 (CYP 2C9): > 50000 nM
IC50 (CYP 1A2): > 50000 nM
IC50 (CYP 2D6): > 50000 nM
half-life [4]: 24.8 h
IC50 (HDAC8): 176 nM
IC50 (HDAC4): 470 nM
half-life [5]: 32.4 h
IC50 (CYP 3A4-M): > 50000 nM
IC50 (HDAC5): 182 nM
solubility (Aqueous solubility): 302 µM (≈ 90.4 µg/mL)
mitochondrial axonal transport (number of moving mitochondria per 100 μm of neurite) (mutant HSPB1 DRG neurons): able to restore the movement of mitochondria
plasma stability remaining percentage (Plasma stability, mouse): 87.9%
IC50 (CYP 2C19): > 50000 nM
Papp A→B (Caco-2 permeability): 3.89 ×10⁻⁶ cm/s
Papp B→A (Caco-2 permeability): 13.2 ×10⁻⁶ cm/s

O=C(NO)c1ccc(Cn2c(C(F)(F)F)nc3ccccc32)c(F)c1 [23e, 3-Fluoro-N-hydroxy-4-[(2-(trifluoromethyl)-1-benzimidazolyl)-methyl]benzamide]
IC50 (HDAC6; [6]): 16 nM
Selectivity HDAC1/HDAC6 (HDAC6): 1500

Cc1nc2cc(F)ccc2n1Cc1ccc(C(=O)NO)cc1 [30b, 4-[(5-Fluoro-2-methyl-1-benzimidazolyl)methyl]-N-hydroxybenzamide]
IC50 (HDAC6; [6]): 6 nM

CN1CCc2c(c3ccccc3n2Cc2ccc(C(=O)NO)cc2)C1 [tubastatin A, reference compound]
plasma stability remaining percentage (Plasma stability, human): 96.4%
clearance ([1]; iv, 3 mg/kg): 222 mL/min/kg
Tmax ([1]; po, 30 mg/kg): 0.25 h
half-life [2]: 5.05 h
half-life [3]: 0.5 h
IC50 (CYP 2C9): > 50000 nM
IC50 (CYP 1A2): > 50000 nM
IC50 (CYP 2D6): 16000 nM
half-life [4]: 1.47 h
half-life [5]: 25.3 h
solubility (Aqueous solubility): 301 µM (≈ 101 µg/mL)
mitochondrial axonal transport (number of moving mitochondria per 100 μm of neurite) (mutant HSPB1 DRG neurons): able to restore the movement of mitochondria
plasma stability remaining percentage (Plasma stability, mouse): 83.0%
IC50 (CYP 2C19): > 50000 nM
Papp A→B (Caco-2 permeability): 2 ×10⁻⁶ cm/s
Papp B→A (Caco-2 permeability): 19.7 ×10⁻⁶ cm/s
